The test system of this assay is Streptococcus pneumoniae-infected mice. Briefly: Blood leukocytes in Streptococcus pneumoniae-infected mice. Particulars: VT 500 ng i.v.; 24 h and 48 h p.i.; n = 8.

“Also recorded” adds a separate entry of the source.

Protocol: For all experiments, female C57BL/6 N mice (8 to 10 weeks old, weighing 18 to 20 g; Charles River Laboratories, Sulzfeld, Germany) were used. Animals were housed under specific pathogen-free conditions under a 12–h/12-h light/dark cycle with free access to food and water.
Mice were anesthetized with ketamine (80 mg/kg) and xylazine (25 mg/kg) and transnasally inoculated with 5 × 10^6 colony-forming units (CFU) of S. pneumoniae (NCTC7978) in 20 μl of sterile PBS as described before [35]. Sham-infected control mice received 20 μl of sterile PBS. After 22 h, 34 h, and 46 h, body weight and rectal temperature were measured, and different dosages of VT (100, 200, or 500 ng in 100 μl of PBS) or PBS were intravenously injected into the tail vein. Twenty-four or forty-eight hours postinfection (p.i.), mice were anesthetized (160 mg/kg ketamine and 75 mg/kg xylazine) and exsanguinated. […] Subsequently, lungs were flushed, and BAL was performed. […] Blood leukocytes were quantified using a scil Vet ABC Hematology Analyzer (scil animal care company GmbH, Viernheim, Germany).

Consider Vasculotide [VT], for which the blood leukocytes entry was “unaffected; also recorded: did not differ”.

The values above are taken from PMC5683375, “Vasculotide reduces pulmonary hyperpermeability in experimental pneumococcal pneumonia” (Critical Care, 2017).
